# Where “and” joins values, the source holds several entries; their conditions need not be identical. Equal entries are not always repeated.
# B1: Ac-TMP: A. caninum putative tissue inhibitor of metalloproteinase, SEQ ID NO: 12; E. coli fusion protein (protein, listed as Ancylostoma caninum)
# chain: MRVAIVFIACFAVAHACKCEKKPRPPLEKLLCQSQFVTHAKVTKKRIDGYFIYYDLEHKEVYKPKDRSIPIELFSWREKENCGMPDLEEGKEYLIGGKVTDYGDGDLVISVSRCDLLRNWTDVSGEEKKLLGTFKCENQS
# modifications: E. coli fusion partner
# notes: E. coli fusion protein
# What was measured:
# Format in all cases: in vivo, dog
# A. caninum [1] = assay: Canine vaccine trial with Ac-TMP, Ac-AP, Ac-APR-1, oral challenge with 400 A. caninum L3; settings: for % Decrease of adult hookworms in the small intestines relative to alum-injected dogs / % Increase of adult hookworms in the colons relative to alum-injected dogs: group; for adult A. caninum hookworms in the colons, Median / adult hookworms in the small intestines, Median: group median; for adult A. caninum hookworms in the colons, Median: alum control 4; for adult hookworms in the small intestines, Median: alum control 180; for ratio of adult hookworms in the small intestine relative to the colon: vaccinated group, alum-injected dogs 43.9
# Description: Study dogs and animal husbandry: Following protocol approval by The George Washington University Institutional Animal Care and Use Committee (IACUC), purpose bred, parasite naïve, male beagles 8±1 week of age were purchased, identified by ear tattoo, and maintained in the AALAC (Association for Assessment and Accreditation of Laboratory Animal Care) accredited George Washington University Animal Research Facility. The dogs were housed in a room dedicated for the study, at a room temperature of 70±4° F., with 10-15 air changes per hour comprised of 100 percent fresh air, and 12 hr light cycles alternating with 12 hr dark cycles. The airflow and timer functions were monitored daily. The dogs were fed on a diet of Teklad Certified Dog Chow #8727, supplemented with a canned soft diet in the event of anorexia. The drinking water was piped from a filter plant and delivered via automatc water system; water analysis was performed by the U.S. Army Corps of Engineers. Water from the facilities automatic system is cultured for bacteria and fungi annually. The pens were flushed daily and sanitized every two weeks. Dogs within a given study group were permitted to live together and socialize prior to the hookworm larval challenge, but were caged individually post-infection. All dogs were quarantined for approximately one week before beginning the vaccine trial. Prior to vaccination a complete blood count (CBC), serum chemistries, and a pre-vaccination serum sample were obtained.
# Vaccine study design and sample size: The vaccine trial was designed to test three different antigens, each formulated with alum, as well as an alum adjuvant control. A total of 24 dogs were randomly assigned into four groups comprised of 6 dogs each. The canine sample size was selected on the ability to detect a 40-50 percent reduction in the numbers of adult hookworms in the small intestines of the vaccinated group relative to control dogs, at a statistical power of 80 percent (alpha=0.05, two-tailed). The data were derived from the mean and standard deviation of adult hookworms previously recovered from age-matched dogs infected with 400 A. caninum L3 (Hotez et al, 2002).
# Recombinant Antigens: Each group of 6 dogs was vaccinated with recombinant hookworm proteins expressed as fusion proteins either in Escherichia coli or in an insect cell line with baculovirus. Ac-AP (Cappello et al, 1995; 1996) and Ac-TMP, were expressed in E. coli as pET 28 (Novagen) fusion proteins containing a polyhistidine tag (Cappello et al, 1996). Ac-APR-1 (Harrop et al, 1996) was expressed in a baculovirus pBacPAK6 vector (Clontech), modified to contain a polyhistidine-encoding sequence and additional restriction enzyme sites (Brindley et al, 2001). Recombinant Ac-AP and Ac-TMP fusion proteins were then purified by nickel affinity chromatography, followed by a second step of purification. In the case of Ac-AP (Cappello et al, 1995; 1996), the recombinant protein was purified by mono-S (Amersham-Pharmacia) ion exchange chromatography, while Ac-TMP (Zhan et al, 2002) was purified by superdex 75 (Amersham-Pharmacia) gel filtration chromatography. Ac-APR-1 (Harrop et al, 1996) was purified by substrate affinity chromatography using pepstatin agarose (Brindley et al, 2001). The antigen stock protein concentration was determined by Pierce Micro BCA assay (Pierce Chemicals) or by the absorbance of the sample at […] using an extinction coefficient that was calculated from the deduced amino acid composition of the fusion protein. The amount of alum adsorbed protein in each dose of antigen was measured by the Pierce Micro BCA assay using a bovine serum albumin standard. The relative purity of each of the antigens relative to contaminating E. coli or insect cell proteins was determined by analysis on sodium dodecyl sulfate polyacrylamide gel electrophoresis (SDS-PAGE). […]
# A. caninum [2] = assay: Canine vaccine trial with Ac-ASP-2, Ac-API, Ac-MEP-1, Ac-APR-1 in AS03, footpad challenge with 500 A. caninum L3
# Experimental: The vaccine trial was designed to test Ac-API, Ac-ASP-2, Ac-MEP-1, Ac-APR-1 formulated with Adjuvant System 03 (AS03) obtained from GlaxoSmithKline (GSK). The rationale for selecting AS03 as an adjuvants is discussed elsewhere (Stoute et al, 1997). […] To make six doses of antigen formulated with AS03, […] of recombinant protein (0.3 ml of antigen at a concentration of 2 mg.ml^−1) was mixed with 1.2 ml of 20 mM Tris-HCl, 0.5 M NaCl, pH 7.9 and 1.5 ml of AS03; the contents of the tube were vortex mixed for 30 seconds then shaken at low speed for 10 minutes. Dogs were immunized with 100 g of formulated antigen in a final volume of 0.5 ml. ASO3 only control was prepared as described above, with PBS included instead of antigen. Formulation of GSK adjuvants were conducted according to the protocol provided by GSK. All injections were performed intramuscularly (IM). Test and control articles were prepared on the day of injection. All animals received 4 immunizations approximately 3 weeks apart.
# A. caninum larvae were cultured from eggs collected in the feces of infected dogs. All hookworms in the infective challenge were approximately equal age (17±7 days post hatching). The species identity of the infective larvae were validated using PCR. All dogs were infected by the footpad method with the same dose of 500 L3 of A. caninum (Zhan et al, 2001). Larval challenge occurred on one of three consecutive days (at age 120+/−9 days). Fourteen-sixteen days after the final immunization, dogs were anesthetized using a combination of ketamine and xylazine (20 mg.kg^−1 and 10 mg.kg^−1 respectively), and 500 A. caninum L3 in a final volume of […] were applied to the footpad.
# [3] = test system: antibody to recombinant proteins; assay: Pre-challenge antibody titer ELISA, trial with Ac-ASP-2, Ac-API, Ac-MEP-1, Ac-APR-1 in AS03
# Experimental: The vaccine trial was designed to test Ac-API, Ac-ASP-2, Ac-MEP-1, Ac-APR-1 formulated with Adjuvant System 03 (AS03) obtained from GlaxoSmithKline (GSK). The rationale for selecting AS03 as an adjuvants is discussed elsewhere (Stoute et al, 1997). The ten purpose bred beagles were randomized into five arms: immunized with the adjuvant-formulated recombinant proteins or adjuvant only (control). To make six doses of antigen formulated with AS03, […] of recombinant protein (0.3 ml of antigen at a concentration of 2 mg.ml^−1) was mixed with 1.2 ml of 20 mM Tris-HCl, 0.5 M NaCl, pH 7.9 and 1.5 ml of AS03; the contents of the tube were vortex mixed for 30 seconds then shaken at low speed for 10 minutes. Dogs were immunized with 100 g of formulated antigen in a final volume of 0.5 ml. ASO3 only control was prepared as described above, with PBS included instead of antigen. Formulation of GSK adjuvants were conducted according to the protocol provided by GSK. All injections were performed intramuscularly (IM). Test and control articles were prepared on the day of injection. All animals received 4 immunizations approximately 3 weeks apart.
# Beagles were immunized with formulated Ac-ASP-2 as previously described (Loukas et al, 2004). The vaccines were administered IM three times beginning at age 62+/−4 days. Boosts were administered to the dogs at intervals of 21 days. Blood was drawn at least once every 21 days and serum was separated from cells by centrifugation. Each animal's specific antibody response was evaluated by indirect ELISA using serum taken prior to the infective challenge (Loukas et al, 2004). Recombinant Ac-ASP-2 was coated onto microtiter plates at a concentration of 5 g.ml^−1. Dog sera were titrated between 1:100 and 1:2×10^6 to determine endpoint titers. Anti-canine IgG1, IgG2 and IgE antibodies conjugated to horse-radish peroxidase (Bethyl Laboratories) were used at a dilution of 1:1,000.
molecule,measurement,setting,value
"Ac-APR-1: A. caninum aspartic protease (cathepsin), SEQ ID NO: 50; baculovirus expressed",% Decrease of adult hookworms in the small intestines relative to alum-injected dogs,A. caninum [1],18%
same,% Increase of adult hookworms in the colons relative to alum-injected dogs,A. caninum [1],300%
same,"adult A. caninum hookworms in the colons, Median",A. caninum [1],27
same,"adult hookworms in the small intestines, Median",A. caninum [1],138
same,ratio of adult hookworms in the small intestine relative to the colon,A. caninum [1],7.3
same,"worm burdens, Maximum",A. caninum [2]; 5 dogs,250.00
same,"worm burdens, Minimum",A. caninum [2]; 5 dogs,119.00
same,"worm burdens, Mean","A. caninum [2]; 5 dogs, ASO3 control 203.8000",177.0000
same,"worm burdens, Median","A. caninum [2]; 5 dogs, ASO3 control 215.0000",168.0000
same,worm burden reduction in a single dog,"A. caninum [2]; dog A3 (ASP-2 group), dog D2 (APR-1 group), versus control mean",42%
same,"worm burden, Colon, Male, Average","A. caninum [2]; group average, AS03 control 5",4
same,"worm burden, Colon, Female, Average","A. caninum [2]; group average, AS03 control 9",6
same,"worm burden, Intestine, Female, Average","A. caninum [2]; group average, AS03 control 95",79
same,"worm burden, Intestine, Male, Average","A. caninum [2]; group average, AS03 control 96",83
same,"worm burden, Total, Average","A. caninum [2]; group average, AS03 control 204",177
same,"worm burden, Colon, Female",A. caninum [2]; individual dogs,1 and 18 and 3 and 8 and 0
same,"worm burden, Colon, Male",A. caninum [2]; individual dogs,0 (2×) and 11 and 3 and 5
same,"worm burden, Intestine, Female",A. caninum [2]; individual dogs,76 and 41 and 69 and 87 and 122
same,"worm burden, Intestine, Male",A. caninum [2]; individual dogs,65 and 47 and 131 and 124 and 49
same,"worm burden, Total",A. caninum [2]; individual dogs,168 and 119 and 146 and 202 and 250
same,"fecal eggs (fecundity), in words",A. caninum [2]; relative to the control group,significant reduction in fecal eggs
same,"antibody response, in words",[3]; AS03,only a single dog developed a substantial antibody titer
same,"Pre-challenge antibody titer, IgG1, GEOMEAN",[3]; geometric mean of group,100
same,"Pre-challenge antibody titer, IgG2, GEOMEAN",[3]; geometric mean of group,562
same,"Pre-challenge antibody titer, IgG1",[3]; individual dogs,100
same,"Pre-challenge antibody titer, IgG2",[3]; individual dogs,"500 (3×) and 4,500 and 100"
B1,% Decrease of adult hookworms in the small intestines relative to alum-injected dogs,A. caninum [1],10.8%
same,% Increase of adult hookworms in the colons relative to alum-injected dogs,A. caninum [1],500%
same,"adult A. caninum hookworms in the colons, Median",A. caninum [1],32
same,"adult hookworms in the small intestines, Median",A. caninum [1],161
same,ratio of adult hookworms in the small intestine relative to the colon,A. caninum [1],6.6
